Results from patent US20210355105A1, “REGULATOR OF NITROGEN-CONTAINING HETEROAROMATIC DERIVATIVES, PREPARATION METHOD THEREFOR AND USE THEREOF” (Jiangsu Hansoh Pharmaceutical Group Co., Ltd., priority 2018, published 2021).

Legend:
[1] = biological target: T1, SHP-2 full-length protein (Homo sapiens, UniProt Q06124); test: Inhibition of SHP-2 kinase activity (Homogeneous Full Length SHP-2 Assay Kit); format: biochemical; settings: relative IC50, full-length SHP-2 with activating peptide
T1 construct: purchased BPS Bioscience 79330
T1 sequence (Q06124 1-593): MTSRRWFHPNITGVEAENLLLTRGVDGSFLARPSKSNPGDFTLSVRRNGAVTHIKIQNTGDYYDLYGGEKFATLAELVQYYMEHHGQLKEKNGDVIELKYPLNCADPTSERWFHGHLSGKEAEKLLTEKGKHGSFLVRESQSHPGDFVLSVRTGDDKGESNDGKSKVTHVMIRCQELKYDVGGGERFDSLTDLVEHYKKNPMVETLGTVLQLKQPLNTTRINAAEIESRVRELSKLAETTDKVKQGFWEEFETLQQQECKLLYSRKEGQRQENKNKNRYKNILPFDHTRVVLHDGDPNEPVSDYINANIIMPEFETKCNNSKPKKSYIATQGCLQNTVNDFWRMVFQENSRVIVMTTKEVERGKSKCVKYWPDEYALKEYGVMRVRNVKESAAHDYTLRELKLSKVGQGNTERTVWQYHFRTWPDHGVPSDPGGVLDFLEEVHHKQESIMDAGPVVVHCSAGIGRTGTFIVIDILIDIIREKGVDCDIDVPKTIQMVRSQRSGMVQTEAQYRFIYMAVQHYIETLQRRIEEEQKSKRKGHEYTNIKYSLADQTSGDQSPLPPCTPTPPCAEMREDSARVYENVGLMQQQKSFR
Description: The objective of this test is to determine the inhibitory effect of the compounds on SHP-2 full-length protein allosteric activity.
Experimental method: Homogeneous Full Length SHP-2 Assay Kit (BPS Bioscience, #79330) was used to determine the in vitro SHP-2 activity. First, 18 μL of Master Mix was added to a 96-well low adsorption microplate (NUNC, #267342), i.e., the reaction buffer with a final concentration of 1× comprised 0.5 μM SHP-2 activating Peptide and 5 mM DTT. After centrifugation, 5 μL of test compound/DMSO was added to each well (the final DMSO content was 1%, V/V, the test compound was dissolved in DMSO to 1 mM, a three-fold serial dilution was carried out to obtain ten concentrations, the final concentration of the reaction system ranged from 1 μM to 0.05 nM). SHP-2 was diluted in the 1× reaction buffer to a final concentration of 0.06 nM, and the resulting solution was added to the reaction microplate (2 μL per well). Full activity control (compound only with DMSO) and full inhibition control (no SHP-2) were set up on the reaction plate. After centrifugation, the reaction mixture was incubated at room temperature for 60 minutes.
After completion of the incubation, 25 μL of Substrate solution, which comprised Substrate with a final concentration of 10 μM and 5 mM DTT, was added to each well. After centrifugation, the reaction mixture was incubated at room temperature for 30 minutes. After completion of the reaction, readings were measured on the Synergy H1 full-function microplate reader (BioTek) (excitation wavelength: 340 nm, emission wavelength: […], gain value: 75).
The IC50 value of the test compounds was calculated by fitting the percentage inhibition rate and data of ten concentrations to a four-parameter nonlinear logic formula with GraphPad prism.

[2] = tested on: NCI-H358 cells; test: Proliferation inhibition of NCI-H358 cells (CellTiter-Glo); format: cell-based; settings: Homo sapiens, NCI-H358, 72 h; 3 days incubation
Description: Experimental method: 3000 cells (90 μL of cell suspension) were inoculated to each well of a 96-well cell culture plate (Corning, #3610). The culture plate was incubated in an incubator overnight (37° C., 5% CO2). On the next day, 10 μL of gradient dilutions of the test compound solution (the final DMSO content was 0.2%, V/V, the final concentration of the reaction system ranged from 10 μM to 4.5 nM) was added to each well of the culture plate. At the same time, full activity control (compound only with DMSO) and full inhibition control (no cells) were set up on the reaction plate. The culture plate was incubated in the incubator for 3 days (37° C., 5% CO2).
After completion of the incubation, 50 μL of CellTiter-Glo reagent was added to each well of the cell culture plate, which was left to stand at room temperature for 10 minutes. The chemiluminescence signal value was measured in the Synergy H1 full-function microplate reader (BioTek). […] The IC50 value of the test compounds was calculated by fitting the percentage inhibition rate and data of eight concentrations to a four-parameter nonlinear logic formula with GraphPad prism.
The IC50 value was calculated by fitting the data of different concentrations and corresponding percentage inhibition rates to a four-parameter nonlinear logic formula with GraphPad prism.

[3] = tested on: human pancreatic cancer cell MiaPaca 2 xenograft; test: Tumor inhibition test on MiaPaca 2 xenograft model; format: in vivo, Balb/c nude mice; settings: 6 mg/kg QD × 3 w, intragastric
Description: Balb/c nude mice were used as test animals. In vivo pharmacodynamic test was carried out on human pancreatic cancer cell MiaPaca 2 xenograft (CDX) model to evaluate the anti-tumor effect of the test compounds.
MiaPaca 2 cells were taken from the cell bank and thawed. The cells were added to the DMEM medium (containing 10% FBS, 1% Glu and 1% P/S), and incubated in the CO2 incubator (the temperature of the incubator was 37° C., and the CO2 concentration was 5%). After the cells covered 80-90% of the bottom of the culture flask, the cells were passaged. After passage, the cells continued to be incubated in the CO2 incubator. The process was repeated until the number of cells met the inoculation requirement of the in vivo pharmacodynamic test. The cells in logarithmic growth phase were collected, and counted by the automatic cell counter. According to the counting results, the cells were resuspended with PBS and Matrigel (volume ratio: 1:1) to obtain a cell suspension (density: 8×10^7/ml), which was placed in an ice box for later use.
Female Balb/c nude mice (6-8 weeks old, body weight: about 18-22 grams) were used as test animals. The mice were maintained in an environment free of special pathogens and in a single ventilated cage (five mice per cage). All cages, bedding and water were disinfected before use. All animals had free access to standard certified commercial laboratory animal diets. The nude mice were marked with a disposable universal ear tag for rats and mice before the test. The skin of the inoculation site was disinfected with 75% medical alcohol before the inoculation. Each mouse was inoculated with 0.1 ml of MiaPaca 2 tumor cells (containing 8*10^6 cells) subcutaneously on the right back. When the average tumor volume reached 100 to 200 mm^3, administration was carried out. The test compounds were administered intragastrically daily. The tumor volume (mm^3) was measured with the vernier caliper twice a week. The tumor volume calculation formula: V=0.5*D*d*d, wherein D and d represent the long diameter and short diameter of the tumor, respectively. The anti-tumor efficacy was determined by dividing the average tumor increase volume of the compound-treated animals by the average tumor increase volume of the untreated animals. Tumor growth inhibition rate calculation formula: […]
All animals were euthanized after the experiment.

[4] = biological target: T2, hERG potassium channel (Homo sapiens, UniProt Q12809); test: Inhibitory activity on hERG potassium channel (Qpatch, CHO-hERG cells); format: cell-based; settings: six concentrations up to 40 μM, read-out: hERG (inhibitory effect on hERG current)
T2 construct: expressed in transfected cells; host or cells: CHO-hERG cells
T2 sequence (Q12809 whole entry): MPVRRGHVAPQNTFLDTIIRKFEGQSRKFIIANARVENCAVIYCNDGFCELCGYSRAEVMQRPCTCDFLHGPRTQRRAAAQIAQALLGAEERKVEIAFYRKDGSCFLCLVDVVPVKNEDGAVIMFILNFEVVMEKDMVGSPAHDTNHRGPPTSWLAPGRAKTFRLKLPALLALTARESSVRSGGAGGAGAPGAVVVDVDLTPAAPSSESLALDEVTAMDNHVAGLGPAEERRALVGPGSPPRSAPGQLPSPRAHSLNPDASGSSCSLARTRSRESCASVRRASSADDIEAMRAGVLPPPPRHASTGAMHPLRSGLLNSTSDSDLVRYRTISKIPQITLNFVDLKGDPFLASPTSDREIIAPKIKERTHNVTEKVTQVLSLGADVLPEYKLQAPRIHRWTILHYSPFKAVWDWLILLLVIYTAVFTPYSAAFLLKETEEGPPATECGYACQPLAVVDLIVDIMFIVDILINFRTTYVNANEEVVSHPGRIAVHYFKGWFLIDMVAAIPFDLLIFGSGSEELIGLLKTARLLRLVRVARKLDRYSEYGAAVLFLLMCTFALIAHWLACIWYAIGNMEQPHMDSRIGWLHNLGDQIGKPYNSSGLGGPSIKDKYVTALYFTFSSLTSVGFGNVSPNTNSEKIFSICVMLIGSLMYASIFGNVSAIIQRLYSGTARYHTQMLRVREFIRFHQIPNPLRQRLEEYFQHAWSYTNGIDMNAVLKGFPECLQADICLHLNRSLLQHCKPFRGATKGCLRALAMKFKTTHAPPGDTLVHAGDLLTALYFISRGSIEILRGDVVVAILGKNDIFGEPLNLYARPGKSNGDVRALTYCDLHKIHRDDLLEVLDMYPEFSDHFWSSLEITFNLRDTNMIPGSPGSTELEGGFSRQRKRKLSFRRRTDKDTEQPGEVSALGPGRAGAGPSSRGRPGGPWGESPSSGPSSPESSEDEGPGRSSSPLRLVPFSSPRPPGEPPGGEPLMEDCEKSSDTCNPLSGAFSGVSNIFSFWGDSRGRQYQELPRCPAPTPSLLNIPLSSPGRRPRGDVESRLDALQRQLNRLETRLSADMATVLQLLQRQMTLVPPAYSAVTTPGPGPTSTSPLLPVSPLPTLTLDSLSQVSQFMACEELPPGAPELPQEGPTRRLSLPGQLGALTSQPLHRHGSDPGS
Description: 8.1.1 CHO-hERG cells were cultured in a 175 cm^2 culture flask. When the cells were grown to a density of 60 to 80%, the culture solution was removed, and the cells were washed once with 7 mL of PBS, and then 3 mL of Detachin was added for digestion of the cells.
8.1.2 After the digestion was complete, the cells were neutralized by adding 7 mL of the culture solution and then centrifuged. The supernatant was removed, and then 5 mL of the culture solution was added for resuspension to ensure a cell density of 2-5×10^6 cells/mL.
The single-cell high-impedance sealing and whole-cell pattern formation processes were both completed automatically by the Qpatch instrument. After the whole-cell recording pattern was obtained, the cells were clamped at −80 millivolts. A pre-voltage of −50 millivolts was applied for 50 milliseconds prior to the application of a depolarizing stimulus of +40 millivolts for 5 seconds, and then the cells were repolarized to −50 millivolts and maintained for 5 seconds, and then returned back to −80 millivolts. This voltage stimulation was applied every 15 seconds, and data were recorded for 2 minutes, and thereafter the extracellular fluid was administered and data were recorded for 5 minutes, and then the administration process was started. The compound was administered from the lowest test concentration, and 2.5 minutes were given for each test concentration. After all the concentrations of the compound were administered, […] Cisapride as a positive control compound was administered. At least three cells (n≥3) were tested for each concentration.
8.4.1 20 mM compound mother solution was diluted with the extracellular fluid. 5 μL of the 20 mM compound mother solution was diluted 500 times to 40 μM by adding 2495 μL of the extracellular fluid, and then 3-fold serial dilutions were performed sequentially in the extracellular fluid containing 0.2% DMSO to obtain a final concentration to be tested.
8.4.2 The highest test concentration was 40 μM, and there were six concentrations in total, i.e., 40, 13.33, 4.44, 1.48, 0.49, and […], respectively.
The experimental data were analyzed by XLFit software.

[5] = Pharmacokinetics assay in mice, oral administration; format: in vivo; settings: mouse; male Balb/c mice, oral 5 mg/kg, plasma
Description: Balb/c mice were used as test animals.
5 g of hydroxyethyl cellulose (HEC, CMC-Na, viscosity: 800-1200 Cps) was dissolved in 1000 mL of purified water, and 10 g of Tween80 was added. The solution was mixed well to form a clear solution. […] The solution was subjected to ultrasound for 10 minutes to obtain a colorless and clear solution with a concentration of 0.5 mg/mL.
After an overnight fast, male Balb/c mice were administrated orally with the test compounds at an administration dose of 5 mg/kg and an administration volume of 10 mL/kg.
Blood was taken before administration and at 0.25 hour, 0.5 hour, 1 hour, 2 hours, 4 hours, 6 hours, 8 hours and 24 hours after administration. The blood samples were stored in EDTA-2K tubes, and centrifuged for 6 minutes at 6000 rpm, at 4° C. to separate the blood plasma. The plasma samples were stored at −80° C. The mice were fed four hours after administration.

[6] = Pharmacokinetics assay in rats, oral administration; format: in vivo; settings: rat; male SD rats, oral 5 mg/kg, plasma
Description: SD rats were used as test animals.
5 g of hydroxyethyl cellulose (HEC, CMC-Na, viscosity: 800-1200 Cps) was dissolved in 1000 mL of purified water, and 10 g of Tween80 was added. The solution was mixed well to form a clear solution.
The solution was shaked well and subjected to ultrasound for 15 minutes to obtain a colorless and clear solution with a concentration of 0.5 mg/mL.
After an overnight fast, male SD rats (3 rats per group) were administrated orally with the test compounds at an administration dose of 5 mg/kg and an administration volume of 10 mL/kg.
0.2 mL of blood was taken from jugular vein before administration and at 0.5 hour, 1.0 hour, 2.0 hours, 4.0 hours, 6.0 hours, 8.0 hours and 24.0 hours after administration. The blood samples were stored in EDTA-2K tubes, and centrifuged for 6 minutes at 6000 rpm, at 4° C. to separate the blood plasma. The plasma samples were stored at −80° C. The rats were fed four hours after administration.

| SMILES | IC50 [1] [nM] | IC50 [2] [nM] | Tumor volume (Mean ± SD) Day 0 [3] | TGI Day 21 [3] [%] | Tumor volume (Mean ± SD) Day 21 [3] [mm^3] | ΔT/ΔC Day 21 [3] [%] | IC50 [4] [nM] | AUC(0-inf) [5] [ng·h/mL] | Cmax [5] [ng/mL] | MRT [5] [h] | Tmax [5] [h] | half-life [5] [h] | AUC(0-inf) [6] [ng·h/mL] | Cmax [6] [ng/mL] | MRT [6] [h] | Tmax [6] [h] | half-life [6] [h] |
| --- | --- | --- | --- | --- | --- | --- | --- | --- | --- | --- | --- | --- | --- | --- | --- | --- | --- |
| Cc1nc(Sc2ccnc(N)c2Cl)c(N)nc1N1CCC2(CC1)Cc1ccccc1[C@H]2N [Example 96, (S)-1′-(6-amino-5-((2-amino-3-chloropyridin-4-yl)thio)-3-methylpyrazin-2-yl)-1,3-dihydrospiro[indene-2,4′-piperidin]-1-amine] | 9.28 | 13.4 | 170 ± 28 (171 ± 25) mm^3 | 97.76 | 183 ± 70 | 2.24 | 5240 | – | – | – | – | – | – | – | – | – | – |
| Nc1nc(N2CCC3(CC=C(C4CC4)[C@H]3N)CC2)cnc1Sc1ccnc(N)c1Cl [Example 143, (S)-8-(6-amino-5-((2-amino-3-chloropyridin-4-yl)thio)pyrazin-2-yl)-2-cyclopropyl-8-azaspiro[4.5]dec-2-en-1-amine] | 3.8 | 23.3 | 166 ± 27 (168 ± 32) mm^3 | 95.64 | 196 ± 62 | 4.36 | 6170 | – | – | – | – | – | – | – | – | – | – |
| Nc1nc(N2CCC3(CC2)Cc2ncccc2[C@H]3N)c(F)nc1Sc1ccnc(N)c1Cl [Example 180, (S)-1′-(6-Amino-5-((2-amino-3-chloropyridin-4-yl)thio)-3-fluoropyrazin-2-yl)-5,7-dihydrospiro[cyclopenta[b]pyridine-6,4′-piperidin]-5-amine] | 9.29 | 79.9 | – | – | – | – | – | 5980 | 996 | 5.15 | 0.5 | 3.92 | 6250 | 666 | 5.67 | 1 | 4.12 |
